Key:
Assay type in all cases: in vivo
male C57BL/6J-ob/ob mice [1] = assay: Glucose tolerance test in obesity model mice, short-term administration; details: 100 mg/kg oral gavage
Protocol: (§1) The following Examples 1 to 3 were carried out in an obesity model mouse, male C57BL/6J-ob/ob mice (12-17 week old, 40-60 g) to study the effect of Compound (a) on glucose metabolism in mice.
Compound (a) was administered to mice for short term and then glucose tolerance test was performed. In the morning (8:00-10:00) of the previous day of the test, hydroxypropylmethyl cellulose solution (0.5% w/v, Shin-Etsu Chemical Co., Ltd) or Compound (a) at 100 mg/kg suspended in the solution was administered by oral gavage. Food was removed just after the administration. Mice were kept under fasting until the end of glucose tolerance test. In this period, the mice were allowed free access to water. The oral administration was also performed in the evening of the previous day of the test (17:00-18:00) and in the morning of the day of the test (8:00-9:00). Glucose tolerance test was carried out in the afternoon (13:00-16:00), and AUC was calculated as described in Example 1 (FIG. 3).

male C57BL/6J-ob/ob mice [2] = assay: Body weight change during the 4-week dosing period; details: 25, 50 or 100 mg/kg orally twice a day for 4 weeks (FIG. 2)
Protocol: as §1
(§2) Hydroxypropylmethyl cellulose solution (0.5% w/v, Shin-Etsu Chemical Co., Ltd) or Compound (a) or (b) suspended in the solution were orally administered at 25, 50 or 100 mg/kg twice a day (8:00-10:00, 16:30-18:00) for 4 weeks. Food was removed in the morning (8:00-9:00) of the last day of administration. Mice were kept under fasting until the end of glucose tolerance test. In this period, the mice were allowed free access to water. The next day, glucose tolerance test was carried out in the afternoon (13:00-16:00). Blood was collected from tail veins just before and at 15, 30, 60 and 120 minutes after oral administration of glucose (2 g/kg) to examine plasma glucose levels. AUC (area under the curve) was calculated by the trapezoidal method from the graphs made with obtained values (FIG. 1). AUCs in mice treated with Compound (a) at 25 mg/kg, 50 mg/kg and 100 mg/kg were 25610 mg·min/dL, 20315 mg·min/dL and 15848 mg·min/dL, respectively. AUC in control mice (dosed with 0.5% hydroxypropylmethyl cellulose solution) was 29863 mg·min/dL.

male C57BL/6J-ob/ob mice [3] = assay: Glucose tolerance test in obesity model mice, administration for 4 weeks; details: for AUC of plasma glucose levels in glucose tolerance test: oral glucose 2 g/kg, 0-120 min, control 29863
Protocol: as §1, §2

male C57BL/6J-ob/ob mice [4] = assay: Glucose tolerance test in obesity model mice, administration for 1 week; details: 100 mg/kg orally twice a day for a week
Protocol: as §1
Hydroxypropylmethyl cellulose solution (0.5% w/v, Shin-Etsu Chemical Co., Ltd) or Compound (b) suspended in the solution were orally administered at 100 mg/kg twice a day (8:00-10:00, 16:30-18:00) for a week. Food was removed in the morning (8:00-9:00) of the last day of administration. Mice were kept under fasting until the end of glucose tolerance test. In this period, the mice were allowed free access to water. The next day, glucose tolerance test was carried out in the afternoon (13:00-16:00) and then AUC was calculated as described in Example 1 (FIG. 4).

[5] = 100 mg/kg orally twice a day for 4 weeks

| SMILES | AUC of plasma glucose levels in glucose tolerance test (male C57BL/6J-ob/ob mice [1]; three doses (morning and evening of previous day, morning of test day), control 15033) | AUC compared to control mice (male C57BL/6J-ob/ob mice [1]; three doses, short term) | Change in body weight during the dosing period (male C57BL/6J-ob/ob mice [2]) | AUC of plasma glucose levels in glucose tolerance test (male C57BL/6J-ob/ob mice [3]; 25 mg/kg orally twice a day for 4 weeks) | AUC of plasma glucose levels in glucose tolerance test (male C57BL/6J-ob/ob mice [3]; 50 mg/kg orally twice a day for 4 weeks) | AUC compared to control mice (male C57BL/6J-ob/ob mice [3]; [5]) | AUC of plasma glucose levels in glucose tolerance test (male C57BL/6J-ob/ob mice [3]; [5]) | AUC change across doses (male C57BL/6J-ob/ob mice [3]; 25, 50, 100 mg/kg orally twice a day for 4 weeks) | AUC compared to control mice (male C57BL/6J-ob/ob mice [4]) | AUC of plasma glucose levels in glucose tolerance test (male C57BL/6J-ob/ob mice [4]; control 22532) |
| --- | --- | --- | --- | --- | --- | --- | --- | --- | --- | --- |
| CC(C)(C)S(=O)(=O)N[C@H]1CC[C@H](C(=O)Nc2ccc(C(F)(F)F)cn2)CC1 [Compound (a)] | 22423 mg·min/dL | statistically significant decrease | no statistically significant change | 25610 mg·min/dL | 20315 mg·min/dL | statistically significant decrease | 15848 mg·min/dL | decreased with dose-dependent manner | – | – |
| CCS(=O)(=O)N[C@H]1CC[C@H](C(=O)Nc2ccc(N3C[C@@H](C)O[C@@H](C)C3)cc2)CC1 [Compound (b)] | – | – | – | – | – | – | – | – | statistically significant decrease | 15546 mg·min/dL |

From patent US20100035996A1, “GLUCOSE METABOLISM STIMULATING AGENT” (Shionogi & Co Ltd, priority 2006, published 2010)
